Source: patent US20260092071A1, “COMPOUNDS AND COMPOSITIONS AS SMARCA2/4 DEGRADERS AND USES THEREOF” (REGENTS OF THE UNIVERSITY OF MICHIGAN, priority 2022, published 2026)

Legend:
SMARCA2 = SMARCA2 (Homo sapiens, UniProt P51531); assay: HiBit assay in engineered HT1080 CRISPR knock-in cell, 6 hrs (B series), SMARCA2; assay type: cell-based; details: 6 hrs incubation; for DC50: read-out: SMARC A2 HT1080 HiBit DC50; for Dmax: HT-1080, HT1080 CRISPR knock-in cells, read-out: SMARC A2 HT1080 HiBit Dmax (%)
Chain of SMARCA2 (P51531 whole entry): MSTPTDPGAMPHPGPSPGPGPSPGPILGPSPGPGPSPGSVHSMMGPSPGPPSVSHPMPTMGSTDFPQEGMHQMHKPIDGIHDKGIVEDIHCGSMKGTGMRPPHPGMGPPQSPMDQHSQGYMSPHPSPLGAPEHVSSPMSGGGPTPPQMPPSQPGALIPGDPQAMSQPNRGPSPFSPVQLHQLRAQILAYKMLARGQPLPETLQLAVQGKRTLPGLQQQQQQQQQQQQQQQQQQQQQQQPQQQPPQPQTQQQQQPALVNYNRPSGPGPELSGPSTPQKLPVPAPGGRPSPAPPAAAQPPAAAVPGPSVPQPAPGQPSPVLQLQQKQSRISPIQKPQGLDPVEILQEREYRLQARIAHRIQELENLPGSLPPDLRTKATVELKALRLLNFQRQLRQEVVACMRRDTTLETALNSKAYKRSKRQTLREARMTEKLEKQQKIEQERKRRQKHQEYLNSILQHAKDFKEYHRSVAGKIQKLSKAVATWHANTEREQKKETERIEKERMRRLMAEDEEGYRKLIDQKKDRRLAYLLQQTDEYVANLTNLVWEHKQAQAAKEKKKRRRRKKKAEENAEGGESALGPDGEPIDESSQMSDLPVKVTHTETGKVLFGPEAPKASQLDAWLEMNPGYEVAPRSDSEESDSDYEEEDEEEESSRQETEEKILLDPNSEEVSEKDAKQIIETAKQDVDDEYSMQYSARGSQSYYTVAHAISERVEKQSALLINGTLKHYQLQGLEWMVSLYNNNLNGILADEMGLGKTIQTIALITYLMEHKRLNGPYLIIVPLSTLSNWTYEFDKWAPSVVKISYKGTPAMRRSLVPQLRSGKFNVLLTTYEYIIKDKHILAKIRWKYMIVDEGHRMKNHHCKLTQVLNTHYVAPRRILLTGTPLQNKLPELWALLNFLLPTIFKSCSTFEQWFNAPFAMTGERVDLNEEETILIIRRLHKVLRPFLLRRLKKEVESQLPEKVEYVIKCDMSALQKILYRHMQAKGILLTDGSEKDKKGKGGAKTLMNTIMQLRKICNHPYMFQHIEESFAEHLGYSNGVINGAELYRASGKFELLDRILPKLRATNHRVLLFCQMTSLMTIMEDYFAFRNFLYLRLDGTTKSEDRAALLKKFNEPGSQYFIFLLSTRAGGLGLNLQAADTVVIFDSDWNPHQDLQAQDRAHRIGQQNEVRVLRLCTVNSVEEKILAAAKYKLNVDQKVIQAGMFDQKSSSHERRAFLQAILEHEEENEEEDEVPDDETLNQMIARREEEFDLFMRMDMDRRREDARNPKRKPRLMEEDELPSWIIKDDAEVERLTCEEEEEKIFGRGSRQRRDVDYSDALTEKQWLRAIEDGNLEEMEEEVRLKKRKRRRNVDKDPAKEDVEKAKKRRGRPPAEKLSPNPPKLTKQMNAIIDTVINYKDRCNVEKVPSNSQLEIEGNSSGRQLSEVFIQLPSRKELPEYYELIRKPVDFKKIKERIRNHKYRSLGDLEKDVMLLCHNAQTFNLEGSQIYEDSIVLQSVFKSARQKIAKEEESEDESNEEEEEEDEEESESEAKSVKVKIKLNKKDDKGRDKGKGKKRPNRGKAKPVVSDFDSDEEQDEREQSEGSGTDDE
Summary of the method: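 Remaining SMARCA2 protein measured as HiBiT luminescence after cell lysis with LgBiT plus lytic substrate. Engineered HT1080 knock-in cells (2000/well) were first treated 6 h at 37 °C with compound at a final 0.1% DMSO.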

SMARCA4 = SMARCA4 (Homo sapiens, UniProt P51532); assay: HiBit assay in engineered HT1080 CRISPR knock-in cell, 6 hrs (B series), SMARCA4; assay type: cell-based; details: 6 hrs incubation; for DC50: read-out: SMARC A4 HT1080 HiBit DC50; for Dmax: HT-1080, HT1080 CRISPR knock-in cells, read-out: SMARC A4 HT1080 HiBit Dmax(%)
Chain of SMARCA4 (P51532 whole entry): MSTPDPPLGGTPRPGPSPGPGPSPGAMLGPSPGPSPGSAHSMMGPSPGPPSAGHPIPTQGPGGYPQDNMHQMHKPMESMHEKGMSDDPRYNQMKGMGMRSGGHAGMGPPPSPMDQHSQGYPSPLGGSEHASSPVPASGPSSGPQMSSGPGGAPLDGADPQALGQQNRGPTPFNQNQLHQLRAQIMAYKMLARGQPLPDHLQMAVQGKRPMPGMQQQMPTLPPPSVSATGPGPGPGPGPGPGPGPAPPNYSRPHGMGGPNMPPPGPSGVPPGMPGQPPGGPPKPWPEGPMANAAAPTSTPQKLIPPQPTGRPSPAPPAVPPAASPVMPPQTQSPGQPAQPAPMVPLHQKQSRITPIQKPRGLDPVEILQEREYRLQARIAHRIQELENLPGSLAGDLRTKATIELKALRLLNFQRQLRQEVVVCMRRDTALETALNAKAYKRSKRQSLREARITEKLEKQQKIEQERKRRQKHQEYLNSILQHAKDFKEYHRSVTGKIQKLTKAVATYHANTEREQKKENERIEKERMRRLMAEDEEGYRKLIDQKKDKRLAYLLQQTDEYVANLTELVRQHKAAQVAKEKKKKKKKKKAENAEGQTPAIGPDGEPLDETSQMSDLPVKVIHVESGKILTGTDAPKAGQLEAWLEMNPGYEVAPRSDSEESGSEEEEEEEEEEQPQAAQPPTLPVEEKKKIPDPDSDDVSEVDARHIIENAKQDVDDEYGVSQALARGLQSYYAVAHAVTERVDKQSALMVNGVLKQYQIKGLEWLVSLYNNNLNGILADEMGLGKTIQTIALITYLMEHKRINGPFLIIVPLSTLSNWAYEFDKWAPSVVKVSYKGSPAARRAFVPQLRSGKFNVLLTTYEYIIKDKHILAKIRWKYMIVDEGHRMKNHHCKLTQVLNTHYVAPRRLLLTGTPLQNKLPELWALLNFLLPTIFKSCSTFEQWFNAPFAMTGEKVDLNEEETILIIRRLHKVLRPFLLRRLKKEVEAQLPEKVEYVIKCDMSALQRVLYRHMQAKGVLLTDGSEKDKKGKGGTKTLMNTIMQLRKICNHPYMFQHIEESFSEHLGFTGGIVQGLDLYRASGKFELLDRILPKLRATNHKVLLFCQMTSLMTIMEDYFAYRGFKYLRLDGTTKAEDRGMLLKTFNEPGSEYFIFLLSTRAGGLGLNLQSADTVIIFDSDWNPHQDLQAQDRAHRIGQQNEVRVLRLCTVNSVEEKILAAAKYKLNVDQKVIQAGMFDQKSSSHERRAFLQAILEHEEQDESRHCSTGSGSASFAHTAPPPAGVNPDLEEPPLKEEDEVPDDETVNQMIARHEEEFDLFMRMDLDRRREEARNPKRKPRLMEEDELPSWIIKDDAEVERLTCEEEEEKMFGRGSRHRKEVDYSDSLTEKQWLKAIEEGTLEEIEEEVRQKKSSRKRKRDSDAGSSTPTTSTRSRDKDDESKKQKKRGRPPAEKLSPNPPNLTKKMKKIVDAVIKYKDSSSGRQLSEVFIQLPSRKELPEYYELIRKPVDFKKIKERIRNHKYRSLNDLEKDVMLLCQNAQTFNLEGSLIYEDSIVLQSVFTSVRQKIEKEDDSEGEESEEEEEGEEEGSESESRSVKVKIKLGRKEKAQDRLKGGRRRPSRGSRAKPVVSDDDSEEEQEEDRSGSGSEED
Summary of the method: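 HT1080 CRISPR knock-in cells carrying the HiBiT tag were seeded onto compounds (final DMSO 0.1%) and incubated 6 hrs at 37° C, 5% CO2. Remaining tagged protein was detected by lytic HiBiT luminescence after adding LgBiT protein and substrate, with LgBiT-free wells serving as negative control.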

DC50 (SMARCA2; HT1080 CRISPR knock-in cells) [nM]	Dmax (SMARCA2) [%]	DC50 (SMARCA4; HT1080 CRISPR knock-in cells) [nM]	Dmax (SMARCA4) [%]	SMARC A2 HT1080 HiBit Dmax (%) (SMARCA2; HT1080 CRISPR knock-in cells)	SMARC A4 HT1080 HiBit Dmax(%) (SMARCA4; HT1080 CRISPR knock-in cells)	SMILES
< 100		< 100		A (A (>90% degradation))	C (C (50-69% degradation))	Cc1ncsc1-c1ccc([C@H](C)NC(=O)[C@@H]2C[C@@H](O)CN2C(=O)[C@H](C(C)C)n2cc(C3CCC(c4cccc5c4C(C)(C)c4nc(=O)c6c(Cl)cccc6n4-5)CC3)nn2)cc1 (stereo partly drawn) [Compound B162, (2S,4R)-1-((S)-2-(4-(4-(4-chloro-7,7-dimethyl-5-oxo-5,7-dihydroindolo[1,2-a]quinazolin-8-yl)cyclohexyl)-1H-1,2,3-triazol-1-yl)-3-methylbutanoyl)-4-hydroxy-N-((S)-1-(4-(4-methylthiazol-5-yl)phenyl)ethyl)pyrrolidine-2-carboxamide]
< 100	> 90	100 to 500	50 to 69			Cc1ncsc1-c1ccc([C@H](CN2CCOCC2)NC(=O)[C@@H]2C[C@@H](O)CN2C(=O)[C@H](c2cc(N3CCC(c4ccc5c(c4)C(C)(C)c4nc(=O)c6c(Cl)cccc6n4-5)CC3)no2)C(C)C)cc1 [Compound B109, (2S,4R)-1-(2-(3-(4-(4-chloro-7,7-dimethyl-5-oxo-5,7-dihydroindolo[1,2-a]quinazolin-9-yl)piperidin-1-yl)isoxazol-5-yl)-3-methylbutanoyl)-4-hydroxy-N—((R)-1-(4-(4-methylthiazol-5-yl)phenyl)-2-morpholinoethyl)pyrrolidine-2-carboxamide]
> 1000	< 50	> 1000	< 50			C[C@H](NC(=O)[C@@H]1C[C@@H](O)CN1C(=O)[C@@H](NC(=O)[C@H]1CC[C@H](CN2CCC(c3ccc4c(c3)C(C)(C)c3nc(=O)c5c(Cl)cccc5n3-4)CC2)CC1)C(C)(C)C)c1ccc(-c2ncnn2C)cc1 [Compound B88, (2S,4R)-1-((S)-2-((11,4S)-4-((4-(4-chloro-7,7-dimethyl-5-oxo-5,7-dihydroindolo[1,2-a]quinazolin-9-yl)piperidin-1-yl)methyl)cyclohexane-1-carboxamido)-3,3-dimethylbutanoyl)-4-hydroxy-N-((S)-1-(4-(1-methyl-1H-1,2,4-triazol-5-yl)phenyl)ethyl)pyrrolidine-2-carboxamide]
< 100	70 to 90	> 1000	< 50			Cc1ncsc1-c1ccc([C@H](C)NC(=O)[C@@H]2C[C@@H](O)CN2C(=O)[C@@H](c2cc(OCCc3cccc4c3C(C)(C)c3nc(=O)c5c(Cl)cccc5n3-4)no2)C(C)C)cc1 [Compound B116, (2S,4R)-1-((R)-2-(3-(2-(4-chloro-7,7-dimethyl-5-oxo-5,7-dihydroindolo[1,2-a]quinazolin-8-yl)ethoxy)isoxazol-5-yl)-3-methylbutanoyl)-4-hydroxy-N—((S)-1-(4-(4-methylthiazol-5-yl)phenyl)ethyl)pyrrolidine-2-carboxamide]
< 100	> 90	< 100	70 to 90			Cc1ncsc1-c1ccc([C@H](C)NC(=O)[C@@H]2C[C@@H](O)CN2C(=O)[C@@H](n2cc([C@H]3CC[C@H](CN4CCC(c5ccc6c(c5)-n5c(nc(=O)c7c(Cl)cccc75)C6(C)C)CC4)CC3)nn2)C(C)(C)C)cc1 [Compound B51, (2S,4R)-1-((S)-2-(4-((1r,4S)-4-((4-(4-chloro-7,7-dimethyl-5-oxo-5,7-dihydroindolo[1,2-a]quinazolin-10-yl)piperidin-1-yl)methyl)cyclohexyl)-1H-1,2,3-triazol-1-yl)-3,3-dimethylbutanoyl)-4-hydroxy-N-((S)-1-(4-(4-methylthiazol-5-yl)phenyl)ethyl)pyrrolidine-2-carboxamide]

Continued, molecule first:

SMILES	DC50 (SMARCA2; HT1080 CRISPR knock-in cells) [nM]	Dmax (SMARCA2) [%]	DC50 (SMARCA4; HT1080 CRISPR knock-in cells) [nM]	Dmax (SMARCA4) [%]	SMARC A2 HT1080 HiBit Dmax (%) (SMARCA2; HT1080 CRISPR knock-in cells)	SMARC A4 HT1080 HiBit Dmax(%) (SMARCA4; HT1080 CRISPR knock-in cells)
Cc1ncsc1-c1ccc([C@H](C)NC(=O)[C@@H]2C[C@@H](O)CN2C(=O)[C@@H](NC(=O)[C@H]2CC[C@H](Cn3cc(-c4ccc5c(c4)C(C)(C)c4nc(=O)c6c(Cl)cccc6n4-5)cn3)CC2)C(C)(C)C)cc1 [Compound B48, (2S,4R)-1-((S)-2-((1r,4S)-4-((4-(4-chloro-7,7-dimethyl-5-oxo-5,7-dihydroindolo[1,2-a]quinazolin-9-yl)-1H-pyrazol-1-yl)methyl)cyclohexane-1-carboxamido)-3,3-dimethylbutanoyl)-4-hydroxy-N—((S)-1-(4-(4-methylthiazol-5-yl)phenyl)ethyl)pyrrolidine-2-carboxamide]	< 100	70 to 90	100 to 500	< 50		
Cc1ncsc1-c1ccc([C@H](CCCCCN2CCC(c3ccc4c(c3)C(C)(C)c3nc(=O)c5c(Br)cccc5n3-4)CC2)NC(=O)[C@@H]2C[C@@H](O)CN2C(=O)[C@@H](NC(=O)C2(C#N)CC2)C(C)(C)C)cc1 [Compound B3, (2S,4R)—N—((S)-6-(4-(4-bromo-7,7-dimethyl-5-oxo-5,7-dihydroindolo[1,2-a]quinazolin-9-yl)piperidin-1-yl)-1-(4-(4-methylthiazol-5-yl)phenyl)hexyl)-1-((S)-2-(1-cyanocyclopropane-1-carboxamido)-3,3-dimethylbutanoyl)-4-hydroxypyrrolidine-2-carboxamide]	< 100	> 90	< 100	> 90		
Cc1ncsc1-c1ccc([C@H](CC(=O)NCCN2CCC(c3ccc4c(c3)-n3c(nc(=O)c5c(Cl)cccc53)C4(C)C)CC2)NC(=O)[C@@H]2C[C@@H](O)CN2C(=O)[C@@H](NC(=O)C2(F)CC2)C(C)(C)C)cc1 [Compound B44, (2S,4R)-N-((S)-3-((2-(4-(4-chloro-7,7-dimethyl-5-oxo-5,7-dihydroindolo[1,2-a]quinazolin-10-yl)piperidin-1-yl)ethyl)amino)-1-(4-(4-methylthiazol-5-yl)phenyl)-3-oxopropyl)-1-((S)-2-(1-fluorocyclopropane-1-carboxamido)-3,3-dimethylbutanoyl)-4-hydroxypyrrolidine-2-carboxamide]	100 to 500	< 50	100 to 500	< 50		
Cc1ncsc1-c1ccc([C@H](C)NC(=O)[C@@H]2C[C@@H](O)CN2C(=O)[C@@H](NC(=O)CCCN2CCC(c3ccc4c(c3)-n3c(nc(=O)c5c(Cl)cccc53)C4(C)C)CC2)C(C)(C)C)cc1 [Compound B45, (2S,4R)-1-((S)-2-(4-(4-(4-chloro-7,7-dimethyl-5-oxo-5,7-dihydroindolo[1,2-a]quinazolin-10-yl)piperidin-1-yl)butanamido)-3,3-dimethylbutanoyl)-4-hydroxy-N-((S)-1-(4-(4-methylthiazol-5-yl)phenyl)ethyl)pyrrolidine-2-carboxamide]	100 to 500	70 to 90	> 1000	< 50		
Cc1ncsc1-c1ccc([C@H](C)NC(=O)[C@@H]2C[C@@H](O)CN2C(=O)[C@@H](NC(=O)c2ccc(CN3CCC(c4ccc5c(c4)C(C)(C)c4nc(=O)c6c(Cl)cccc6n4-5)CC3)s2)C(C)(C)C)cc1 [Compound B20, (2S,4R)-1-((S)-2-(5-((4-(4-chloro-7,7-dimethyl-5-oxo-5,7-dihydroindolo[1,2-a]quinazolin-9-yl)piperidin-1-yl)methyl)thiophene-2-carboxamido)-3,3-dimethylbutanoyl)-4-hydroxy-N-((S)-1-(4-(4-methylthiazol-5-yl)phenyl)ethyl)pyrrolidine-2-carboxamide]	< 100	> 90	< 100	70 to 90		
